Measurements as given in PubChem BioAssay (NCI).
“And” between values parts separate entries of the source, which are not always exact repeats. Equal values may be shown once.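 Tested at 5 concentrations; 48 h exposure; 96-well plates; endpoints linearly interpolated, else capped at highest concentration. Abbreviation: GI50, concentration required for 50% inhibition of growth. At the TGI there is no net growth.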

Legend:
Test in all cases: growth of human tumour cells (NCI), 48 h
SK-OV-3 ovarian = tested on: SK-OV-3 ovarian
HCT-15 colon = tested on: HCT-15 colon
SNB-19 CNS = tested on: SNB-19 CNS
CAKI-1 renal = tested on: CAKI-1 renal
HCT-116 colon = tested on: HCT-116 colon
NCI-H23 lung = tested on: NCI-H23 lung
OVCAR-8 ovarian = tested on: OVCAR-8 ovarian
SK-MEL-2 melanoma = tested on: SK-MEL-2 melanoma
M14 melanoma = tested on: M14 melanoma
UACC-62 melanoma = tested on: UACC-62 melanoma
SNB-75 CNS = tested on: SNB-75 CNS
OVCAR-3 ovarian = tested on: OVCAR-3 ovarian
A549 NSCLC = tested on: A549 NSCLC
NCI-H226 lung = tested on: NCI-H226 lung
SK-MEL-28 melanoma = tested on: SK-MEL-28 melanoma
SK-MEL-5 melanoma = tested on: SK-MEL-5 melanoma
HOP-62 NSCLC = tested on: HOP-62 NSCLC
PC-3 prostate = tested on: PC-3 prostate
HCC-2998 colon = tested on: HCC-2998 colon
MOLT-4 leukemia = tested on: MOLT-4 leukemia
CCRF-CEM leukemia = tested on: CCRF-CEM leukemia
SF-295 CNS = tested on: SF-295 CNS
SR leukemia = tested on: SR leukemia
KM12 colon = tested on: KM12 colon
SN12C renal = tested on: SN12C renal
K-562 leukemia = tested on: K-562 leukemia
NCI-H522 lung = tested on: NCI-H522 lung
SF-268 CNS = tested on: SF-268 CNS
A498 renal = tested on: A498 renal
COLO 205 colon = tested on: COLO 205 colon
SW-620 colon = tested on: SW-620 colon
OVCAR-5 ovarian = tested on: OVCAR-5 ovarian
RPMI-8226 leukemia = tested on: RPMI-8226 leukemia
MCF7 breast = tested on: MCF7 breast
EKVX NSCLC = tested on: EKVX NSCLC
HT29 colon = tested on: HT29 colon
HL-60(TB) leukemia = tested on: HL-60(TB) leukemia
OVCAR-4 ovarian = tested on: OVCAR-4 ovarian
U251 CNS = tested on: U251 CNS
NCI/ADR-RES ovarian = tested on: NCI/ADR-RES ovarian
T-47D breast = tested on: T-47D breast
UACC-257 melanoma = tested on: UACC-257 melanoma
MDA-MB-435 = tested on: MDA-MB-435
HOP-92 NSCLC = tested on: HOP-92 NSCLC
DU-145 prostate = tested on: DU-145 prostate
786-0 renal = tested on: 786-0 renal
RXF 393 renal = tested on: RXF 393 renal
MDA-MB-231 breast = tested on: MDA-MB-231 breast
SF-539 CNS = tested on: SF-539 CNS
NCI-H460 lung = tested on: NCI-H460 lung
BT-549 breast = tested on: BT-549 breast
ACHN renal = tested on: ACHN renal
LOX IMVI melanoma = tested on: LOX IMVI melanoma
TK-10 renal = tested on: TK-10 renal

CCCC(=O)Nc1cc(/C=C/C(=O)N2C[C@H]3C[C@@]34C2=CC(=O)c2[nH]cc(C)c24)n(C)c1
TGI (SK-OV-3 ovarian): 0.352 µM and 0.861 µM | TGI (HCT-15 colon): 25 µM | TGI (SNB-19 CNS): 2.86 µM and 13.2 µM | TGI (CAKI-1 renal): < 0.0025 µM | TGI (HCT-116 colon): 11 µM | TGI (NCI-H23 lung): 0.00558 µM | TGI (OVCAR-8 ovarian): < 0.0025 µM | TGI (SK-MEL-2 melanoma): 25 µM | TGI (M14 melanoma): 25 µM | TGI (UACC-62 melanoma): < 0.0025 µM | TGI (SNB-75 CNS): 0.00527 µM | TGI (OVCAR-3 ovarian): 0.00947 µM | TGI (A549 NSCLC): 25 µM | TGI (NCI-H226 lung): 0.25 µM | TGI (SK-MEL-28 melanoma): 0.00678 µM | TGI (SK-MEL-5 melanoma): 1.04 µM | TGI (HOP-62 NSCLC): 25 µM | TGI (PC-3 prostate): 25 µM | TGI (HCC-2998 colon): < 0.0025 µM | TGI (MOLT-4 leukemia): < 0.0025 µM | TGI (CCRF-CEM leukemia): < 0.0025 µM | TGI (SF-295 CNS): 0.388 µM | TGI (SR leukemia): < 0.0025 µM | TGI (KM12 colon): 0.267 µM and 1.12 µM | TGI (SN12C renal): 0.257 µM | TGI (K-562 leukemia): 25 µM | TGI (NCI-H522 lung): < 0.0025 µM | TGI (SF-268 CNS): > 100 µM | TGI (A498 renal): < 0.0025 µM | TGI (COLO 205 colon): 0.281 µM | TGI (SW-620 colon): 25 µM and 7.75 µM | TGI (OVCAR-5 ovarian): 25 µM | TGI (RPMI-8226 leukemia): 0.164 µM | TGI (MCF7 breast): 25 µM | TGI (EKVX NSCLC): 1.15 µM | TGI (HT29 colon): 15.4 µM | TGI (HL-60(TB) leukemia): < 0.0025 µM | TGI (OVCAR-4 ovarian): 0.0111 µM | TGI (U251 CNS): 1.11 µM | TGI (NCI/ADR-RES ovarian): 0.11 µM and 0.0507 µM

O=C(c1ccccc1)c1ccccc1C(=O)c1ccccc1
GI50 (SK-OV-3 ovarian): 50.3 µM | TGI (SK-OV-3 ovarian): > 100 µM | GI50 (HCT-15 colon): 50 µM | TGI (HCT-15 colon): > 100 µM | GI50 (SNB-19 CNS): > 100 µM | TGI (SNB-19 CNS): > 100 µM | GI50 (CAKI-1 renal): 19.4 µM | TGI (CAKI-1 renal): 70.6 µM | GI50 (HCT-116 colon): 29.8 µM | TGI (HCT-116 colon): > 100 µM | GI50 (NCI-H23 lung): 34 µM | TGI (NCI-H23 lung): > 100 µM | GI50 (OVCAR-8 ovarian): 34.5 µM | TGI (OVCAR-8 ovarian): > 100 µM | GI50 (T-47D breast): 47.2 µM | TGI (T-47D breast): > 100 µM | GI50 (SK-MEL-2 melanoma): 58.6 µM | TGI (SK-MEL-2 melanoma): > 100 µM | GI50 (M14 melanoma): 31.9 µM | TGI (M14 melanoma): > 100 µM | GI50 (UACC-62 melanoma): 29.7 µM | TGI (UACC-62 melanoma): > 100 µM | GI50 (SNB-75 CNS): 45.5 µM | TGI (SNB-75 CNS): > 100 µM | GI50 (OVCAR-3 ovarian): 41 µM | TGI (OVCAR-3 ovarian): > 100 µM | GI50 (A549 NSCLC): 50 µM | TGI (A549 NSCLC): > 100 µM | GI50 (NCI-H226 lung): 52.3 µM | TGI (NCI-H226 lung): > 100 µM | GI50 (UACC-257 melanoma): 40.5 µM | TGI (UACC-257 melanoma): > 100 µM | GI50 (SK-MEL-28 melanoma): 30.9 µM | TGI (SK-MEL-28 melanoma): > 100 µM | GI50 (SK-MEL-5 melanoma): 22.5 µM | TGI (SK-MEL-5 melanoma): 67.1 µM | GI50 (HOP-62 NSCLC): > 100 µM | TGI (HOP-62 NSCLC): > 100 µM | GI50 (PC-3 prostate): 37.7 µM | TGI (PC-3 prostate): > 100 µM | GI50 (HCC-2998 colon): 32.3 µM | TGI (HCC-2998 colon): 85.3 µM | GI50 (MOLT-4 leukemia): 32.7 µM | TGI (MOLT-4 leukemia): > 100 µM | GI50 (MDA-MB-435): 28.7 µM | TGI (MDA-MB-435): > 100 µM | GI50 (CCRF-CEM leukemia): 42.9 µM | TGI (CCRF-CEM leukemia): > 100 µM | GI50 (HOP-92 NSCLC): 16.4 µM | TGI (HOP-92 NSCLC): 99.4 µM | GI50 (DU-145 prostate): 88.1 µM | TGI (DU-145 prostate): > 100 µM | GI50 (SF-295 CNS): 31 µM | TGI (SF-295 CNS): > 100 µM | GI50 (SR leukemia): 41.7 µM | TGI (SR leukemia): > 100 µM | GI50 (KM12 colon): 36.2 µM | TGI (KM12 colon): > 100 µM | GI50 (SN12C renal): > 100 µM | TGI (SN12C renal): > 100 µM | GI50 (K-562 leukemia): 41 µM | TGI (K-562 leukemia): > 100 µM | GI50 (SF-268 CNS): 63.4 µM | TGI (SF-268 CNS): > 100 µM | GI50 (786-0 renal): 50.6 µM | TGI (786-0 renal): > 100 µM | GI50 (A498 renal): 4.34 µM | TGI (A498 renal): > 100 µM | GI50 (RXF 393 renal): 47.8 µM | TGI (RXF 393 renal): > 100 µM | GI50 (MDA-MB-231 breast): 65.5 µM | TGI (MDA-MB-231 breast): > 100 µM | GI50 (SF-539 CNS): 77.5 µM | TGI (SF-539 CNS): > 100 µM | GI50 (COLO 205 colon): 79.5 µM | TGI (COLO 205 colon): > 100 µM | GI50 (NCI-H460 lung): 35.9 µM | TGI (NCI-H460 lung): > 100 µM | GI50 (BT-549 breast): 32 µM | TGI (BT-549 breast): > 100 µM | GI50 (SW-620 colon): 55.8 µM | TGI (SW-620 colon): > 100 µM | GI50 (OVCAR-5 ovarian): > 100 µM | TGI (OVCAR-5 ovarian): > 100 µM | GI50 (MCF7 breast): 1.76 µM | TGI (MCF7 breast): 10.9 µM | GI50 (ACHN renal): 45.7 µM | TGI (ACHN renal): > 100 µM | GI50 (EKVX NSCLC): 28.6 µM | TGI (EKVX NSCLC): > 100 µM | GI50 (HT29 colon): 45.3 µM | TGI (HT29 colon): > 100 µM | GI50 (LOX IMVI melanoma): 46 µM | TGI (LOX IMVI melanoma): > 100 µM | GI50 (TK-10 renal): 32.8 µM | TGI (TK-10 renal): > 100 µM | GI50 (HL-60(TB) leukemia): 53.7 µM | TGI (HL-60(TB) leukemia): > 100 µM | GI50 (OVCAR-4 ovarian): 36.7 µM | TGI (OVCAR-4 ovarian): > 100 µM | GI50 (U251 CNS): 39.4 µM | TGI (U251 CNS): > 100 µM | GI50 (NCI/ADR-RES ovarian): 27.4 µM | TGI (NCI/ADR-RES ovarian): > 100 µM
